According to paper PMC11279931, “Development and Evaluation of Docetaxel-Loaded Nanostructured Lipid Carriers for Skin Cancer Therapy” (Pharmaceutics, 2024):
Converted amounts (≈) assume the structure as drawn.

Columns and labels:
[1] = Docetaxel equilibrium solubility in molten solid lipids; assay type: physicochemical; settings: melted state at 75 °C, 24 h
Procedure: To assess the solubility of the active substance, various solid lipids were examined (such as tetradecanoic acid, decanoic acid, palmitic acid, stearic acid, GMS-SE, GMS, sorbitan monostearate, cetyl palmitate, Gelucire® 43/01, and Suppocire® NAS 50). Initially, 500 mg of each solid lipid was accurately weighed and melted. Subsequently, excess docetaxel was added to the molten lipid. The drug–lipid mixture was kept at a constant temperature of 75 °C, thus maintaining a minimum of 10 °C above the melting point of the solid lipids. The mixture was stirred at 750 rpm for 24 h. Using preheated utensils, a predetermined amount of supernatant was carefully transferred into a 5 mL volumetric flask. The transfer was done by weight to ensure precision and consistency in sample size across all tests. The transferred sample was dissolved using a suitable solvent selected based on its compatibility with both the lipid and docetaxel. Choices like methanol, dichloromethane, DMSO, or their mixtures were used depending on their efficacy in dissolving the sample thoroughly. […]
For the quantitative analysis of docetaxel, a Jasco LC-4000 Series HPLC system (JASCO Corporation, Tokyo, Japan) containing a quaternary pump (model PU-4180), an autosampler (model AS-4150), a DAD detector (model MD-4010), and a column thermostat (model CO-4061) was employed. […]

[2] = Thermogravimetric analysis; assay type: physicochemical; settings: TGA, 10 °C/min, nitrogen
Procedure: Thermogravimetric analysis (TGA) was performed for NLC-DTX, NLC-Blank, and their components (DTX, GC, G43/01, MCT, S-PC-3, T80, mannitol) using thermal analyzer TGA Q5000IR (TA Instruments, New Castle, DE, USA). TGA curves were generated with a heating rate of 10 °C/min over a temperature range from room temperature to 700 °C, under a dynamic nitrogen atmosphere (50 mL/min). The samples were placed in a platinum pan (100 µL).

HUVEC normal cells [3] = experiment: Cell cycle analysis by flow cytometry; assay type: cell-based, human
Procedure: (§1) SK-MEL-24 (human melanoma cell line—HTB-71) and HUVEC (human primary umbilical vein endothelial cells—CRL-1730) were purchased from the American Type Culture Collection (ATCC). HUVEC normal cells were used as a reference. Adherent cells were maintained in culture in DMEM/F12 medium added by 2 mM L-glutamine, 10% fetal bovine serum, 100 units/mL penicillin, 100 μg/mL streptomycin, and incubated at 37 °C in 5% CO2 humidified atmosphere. After 24 h, adherent cells were treated with different concentrations of the compounds for different timeframes. A 5-FU conventional oncology drug used in cancer treatments can be used as a positive control of the experiments. Cell treatments of compounds were carried out using concentrations of 200, 100, 50, 25, 12.5, 6.25, 3.125, and 1.56 μg/mL of the drug. Then, cells were detached with a nonenzymatic PBS/1 mM EDTA solution washed twice in PBS.
(§2) In this experiment, 5 × 10^5 cells that had been previously fixed were washed and resuspended in PBS. The CycleTEST PLUS DNA Reagent kit from BD Biosciences was used according to the manufacturer’s protocol for the assay. The probes were kept in the dark and at 4 °C until data acquisition by flow cytometry (Becton Dickinson—BD) using a FACSCantoII flow cytometer from BD. The ModFIT v3.2 software was used to analyze the data and estimate the DNA index (DI) and progression through cell cycle phases.

SK-MEL-24 tumor cells [4] = experiment: Cell cycle analysis by flow cytometry; assay type: cell-based, human
Procedure: as §1, §2

[5] = set-up: method as in PMID 32164731, PMID 25974386; settings: cited from earlier work
[6] = set-up: method as in PMID 32164731, PMID 33531521, PMID 31310876, PMID 25974386; settings: cited from earlier work
HUVEC normal cells [7] = experiment: MTS cytotoxicity assay; assay type: cell-based, human
Procedure: as §1, with “Cell treatments of compounds were carried out using concentrations of 200, 100, 50, 25, 12.5, 6.25, 3.125, and 1.56 μg/mL of the drug. Then, cells were detached with a nonenzymatic PBS/1 mM EDTA solution washed twice in PBS.” left out
All assays were performed in triplicate in 96-well microtiter plates with flat bottom (Falcon), using CellTiter 96 Aqueous One Solution Cell Proliferation Assay (Promega, Madison, WI, USA), an MTS-based colorimetric assay. […] The reduction of the tetrazolium compound to formazan was spectrophotometrically measured at λ = 492 nm using a Dynex plate reader (DYNEX Technologies MRS, Chantilly, VA, USA). The percentage of viability compared to untreated cells (considered 100% viable) was calculated with the formula:(2) Cell viability=absorbance of treated cells−absorbance of culture medium/absorbance of untreated cells−absorbance of culture medium×100 […]

HUVEC normal cells [8] = experiment: Apoptosis, Annexin V-FITC/PI flow cytometry; assay type: cell-based, human; settings: 50 μg/mL, 24 h; untreated approximately 7–8%
Procedure: as §1
(§3) The apoptosis assay was performed according to the manufacturer’s instructions using the Annexin V-FITC kit from BD Biosciences. Cells treated and untreated with the experimental compound were resuspended in a cold binding buffer. The percentages of apoptotic cells were determined by double staining with Annexin V-FITC/PI. In each tube was added 400 μL of Annexin V binding buffer and the 5000 cells/sample for 15 min in the dark at room temperature. The cells were analyzed using a FACS CantoII flow-cytometer (Becton Dickinson—BD). The analysis was performed using DIVA 6.2 software to discriminate viable cells (FITC-PI-) from necrotic cells (FITC+PI+) and early apoptosis (FITC+PI-) from late apoptosis.

SK-MEL-24 tumor cells [9] = experiment: Apoptosis, Annexin V-FITC/PI flow cytometry; assay type: cell-based, human; settings: 5 and 50 μg/mL
Procedure: as §1, §3

In the case of `CC(=O)O[C@@]12CO[C@@H]1C[C@H](O)[C@@]1(C)C(=O)[C@H](O)C3=C(C)[C@@H](OC(=O)[C@H](O)[C@@H](NC(=O)OC(C)(C)C)c4ccccc4)C[C@@](O)([C@@H](OC(=O)c4ccccc4)[C@H]21)C3(C)C` [DTX, Docetaxel], the “docetaxel solubility in Gelucire 43/01” value [1] is reported as 10 mg/g, the “docetaxel solubility in tetradecanoic acid” value [1] is reported as 16 mg/g and the thermal stability limit [2] is reported as “approximately 120 °C”. The cell cycle alterations (HUVEC normal cells [3]; 50 μg/mL, 24 h) was “G2/M arrest”, the cell cycle alterations (HUVEC normal cells [3]; 50 μg/mL, 48 h) was “a decrease in the G1 population, and an increase in the S phase” and the cell cycle alterations (HUVEC normal cells [3]; 24 h, concentration not given) was “a decrease in the S phase accompanied by an increase in the G2 phase”. For the same compound, the cell cycle alterations (HUVEC normal cells [3]; 48 h, independent of the concentration) was “an increase in the S phase and a significant decrease in the G1 phase”, the cell cycle distribution (SK-MEL-24 tumor cells [4]; 5 μg/mL, 24 h and 48 h) was “decreases the G1 phase and increases the G2 phase” and the cell cycle distribution (SK-MEL-24 tumor cells [4]; 50 μg/mL, 24 h) was “a decrease in the S phase accompanied by an increase in the G2 phase”. For the same compound, the cell cycle distribution (SK-MEL-24 tumor cells [4]; 50 μg/mL, 48 h) was “a significant decrease in the S phase”, the logp value [5] was 4.1 and the water solubility [6] was 4.93 µg/mL (≈ 6.1 µM). For the same compound, the IC50 (HUVEC normal cells [7]; Homo sapiens, HUVEC, tested range 1.56–200 μg/mL, read-out: IC50 on HUVECs) was < 1.56 µg/mL, the “cell death (reduction in HUVEC viability)” value (HUVEC normal cells [7]; all tested concentrations (1.56–200 μg/mL), after 24 and 48 h) was “over 50%” and the apoptosis (HUVEC normal cells [8]) was 12.3%. For the same compound, the effect on apoptosis (SK-MEL-24 tumor cells [9]; 24 and 48 h, untreated approximately 4–5%) was “sustained increases in apoptosis” and the increase in apoptosis (SK-MEL-24 tumor cells [9]; after 48 h, vs untreated) was “two-fold”.
